{
  "source": "patent EP1928474B1",
  "about": "“USE OF GLUCOSYLATED HYDROXYSTILBENES FOR THE PREVENTION AND TREATMENT OF EYE PATHOLOGIES” (Tubilux Pharma S.P.A., priority 2005, dated 2007)",
  "key": {"[1]": {"tested_on": "inducible nitric-synthesase oxide (iNOS)", "assay": "iNOS production by hTERT fibroblasts stimulated with cytokines (IL-1 + IFN-γ), iNOS-positive cells by flow cytometry", "format": "cell-based, human", "conditions": "for number of iNOS-positive fibroblasts: pre-incubation at 1.25 - 2.5 - 5 µg/ml, then IL-1 3 ng/ml + IFN-γ 250 U/ml, 48 h, Figure 1", "protocol": "The study aimed at determining the effects of treatment with piceide and resveratrol on the inducible nitric-synthesase oxide (iNOS) by corneal fibroblasts immortalised with human Telomerase Reverse Transcriptase (hTERT fibroblasts), stimulated with interferon-γ (IFN-γ) and interleukine-1 (IL-1).\nSome hTERT fibroblasts were maintained in a DMEM culture medium. They were subsequently re-suspended at a concentration of 1x10^6 and placed on 24 mm-well plates. The cells were incubated at a temperature of 37°C with piceide or resveratrol at doses of 1.25 - 2.5 - 5 µg/ml. After 15 minutes the following were added to the wells containing the cells: IL-1 at a concentration of 3 ng/ml, and IFN-γ at a concentration of 250 U/ml. After a further 48 h of incubation, the fibroblasts were washed and re-suspended in PBS at a concentration of 1x10^6, in order to determine the iNOS-positive cells by means of flow cytometry.\nThe cells treated in the aforesaid way were permeabilised by treatment with 70% ethanol and then labelled with 5 µg/ml of a human anti-iNOS antibody labelled with FITC. After; colouring, the cells were fixed in paraformaldehyde and analysed by means of a FACScan cytofluorimeter."}, "iNOS": {"tested_on": "iNOS", "assay": "iNOS production by fibroblasts of normal corneal origin stimulated with IL-1", "format": "cell-based", "conditions": "equal doses", "description": "As will be illustrated in greater detail in the experimental section below, piceide - at non-toxic levels - blocks iNOS production and its activity is correlated to the dose. […] This different activity is probably due to the different chemical structure of the two molecules and to the consequent different biological characteristics, among which the greater bioavailability of piceide at the cell level is important. Another anti-inflammatory effect of piceide, linked to what has been said above, lies in its capacity to inhibit cyclooxygenase synthesis and thus the synthesis and release of pro-inflammatory prostaglandins."}, "hTERT fibroblasts [2]": {"tested_on": "hTERT fibroblasts", "assay": "Toxicity for hTERT fibroblasts at the doses assayed", "conditions": "doses of the differentiation study, 5 µg/ml"}, "[3]": {"tested_on": "fibroblasts of normal corneal origin", "assay": "Differentiation of TGF-β-stimulated fibroblasts of normal corneal origin into myofibroblasts, α-SMA expression", "format": "cell-based", "description": "As reported in detail in the experimental section below, piceide has - unlike resveratrol - unexpectedly proven to be capable of modulating the capacity of TGF-β to cause fibroblast differentiation into myofibroblasts."}, "hTERT fibroblasts [4]": {"tested_on": "hTERT fibroblasts", "assay": "Differentiation of TGF-β-stimulated hTERT fibroblasts into myofibroblasts, α-SMA-positive cells by flow cytometry", "format": "cell-based, human", "conditions": "5 µg/ml; for percentage of cells capable of expressing α-SMA: sub-optimal dose (0.1 ng/ml) of TGF-β, Figure 2", "protocol": "The study aimed at determining the effects of piceide treatment on the differentiation of corneal fibroblasts immortalised with human inverse telomerase transcriptase (hTERT fibroblasts) stimulated with sub-optimal, optimal or above-optimal doses of TGF-β. Fibroblast differentiation into myofibroblasts was determined by examining whether there was any α-smooth muscle actin (α-SMA).\nSome hTERT fibroblasts maintained in a DMEM culture were re-suspended at a concentration of 1x10^6 and placed on 24mm-well plates. The cells were incubated at a temperature of 37°C with piceide or resveratrol at doses of 5 µg/ml. After 24 h the cells were stimulated with optimal (1ng/ml), sub-optimal (0.1 ng/ml) and above-optimum (10 ng ml) doses of TGF-β. After 3, 5 and 10 days of incubation, the fibroblasts were washed and re-suspended in PBS at a concentration of 1x10^6, in order to determine the α-SMA-positive cells by means of flow cytometry.\nThe cells treated in the aforesaid way were permeabilised by treatment with 70% ethanol and then labelled with 5µg/ml of a human anti-α-SMA antibody labelled with FITC. After colouring, the cells were fixed in paraformaldehyde and analysed by a means of a FACScan cytofluorimeter."}, "[5]": {"tested_on": "human liver myofibroblasts", "conditions": "literature; cited from earlier work"}},
  "data": [
    {"smiles": "OC[C@H]1O[C@@H](Oc2cc(O)cc(/C=C/c3ccc(O)cc3)c2)[C@H](O)[C@@H](O)[C@@H]1O", "note": "[piceide, resveratrol-3-O-β-mono-D-glucoside]", "values": [
      {"measurement": "decrease in iNOS-positive fibroblasts compared to resveratrol", "setting": "[1]; equal doses 1.25 - 2.5 - 5 µg/ml, differences statistically significant at each point", "value": "greater"},
      {"measurement": "number of iNOS-positive fibroblasts", "setting": "[1]", "value": "dose-dependent decrease"},
      {"measurement": "inhibition of iNOS production compared to resveratrol", "setting": "iNOS", "value": "more effective"},
      {"measurement": "toxicity", "setting": "hTERT fibroblasts [2]", "value": "does not appear toxic"},
      {"measurement": "TGF-β activity assessed by α-SMA expression", "setting": "[3]; fibroblasts of normal corneal origin, sub-optimal concentration of TGF-β", "value": "increase growth factor activity"},
      {"measurement": "α-SMA expression", "setting": "[3]; normal fibroblasts, above-optimal concentration of TGF-β", "value": "decrease in α-SMA expression"},
      {"measurement": "percentage of α-SMA+ cells", "setting": "hTERT fibroblasts [4]; above-optimal dose (10 ng/ml) of TGF-β, 5th day, Figure 4", "value": "percentage decrease in fibroblasts which was already significant"},
      {"measurement": "percentage of α-SMA+ cells", "setting": "hTERT fibroblasts [4]; above-optimal dose (10 ng/ml) of TGF-β, 10th day, Figure 4", "value": "brought the number of fibroblasts back to physiological conditions"},
      {"measurement": "percentage of α-SMA-positive cells", "setting": "hTERT fibroblasts [4]; optimal dose (1 ng/ml) of TGF-β, all three time intervals (3, 5, 10 days), Figure 3", "value": "did not lead to any significant percentage variations"},
      {"measurement": "percentage of cells capable of expressing α-SMA", "setting": "hTERT fibroblasts [4]; 5th day", "value": "decreased, although still remaining statistically significant"},
      {"measurement": "percentage of cells capable of expressing α-SMA", "setting": "hTERT fibroblasts [4]; 10th day", "value": "no longer any significant percentages of cells able to express α-SMA"},
      {"measurement": "percentage of cells capable of expressing α-SMA", "setting": "hTERT fibroblasts [4]; 3 days, compared to non-treated", "value": "statistically significant increase"},
      {"measurement": "effect on liver myofibroblasts", "setting": "[5]", "value": "did not show any significant effects"}
    ]},
    {"smiles": "Oc1ccc(/C=C/c2cc(O)cc(O)c2)cc1", "note": "[resveratrol, reference compound]", "values": [
      {"measurement": "number of iNOS-positive fibroblasts", "setting": "[1]", "value": "decrease"},
      {"measurement": "percentage of α-SMA+ cells", "setting": "hTERT fibroblasts [4]; above-optimal dose of TGF-β, time not stated", "value": "did not lead to any statistically significant variation"},
      {"measurement": "percentage of α-SMA+ cells", "setting": "hTERT fibroblasts [4]; optimal dose of TGF-β, time not stated", "value": "did not lead to any statistically significant variation"},
      {"measurement": "percentage of α-SMA+ cells", "setting": "hTERT fibroblasts [4]; sub-optimal dose of TGF-β, time not stated", "value": "did not lead to any statistically significant variation"},
      {"measurement": "effect on liver myofibroblasts", "setting": "[5]", "value": "able to deactivate human liver myofibroblasts"},
      {"measurement": "α-SMA expression", "setting": "[5]", "value": "reduction"}
    ]},
    {"smiles": "Oc1cc(O)cc(/C=C/c2ccc(O)c(O)c2)c1", "note": "[trans-piceatannol, trans-3,4',3',5-tetrahydroxystilbene]", "values": [
      {"measurement": "effect on liver myofibroblasts", "setting": "[5]", "value": "neither trans-piceide nor another hydroxystilbene - trans-piceatannol (trans-3,4',3',5-tetrahydroxystilbene) - have shown any effect"}
    ]}
  ]
}
